Laboratory results from ChEMBL document CHEMBL2010693, “Scaffold hybridization in generation of indenoindolones as anticancer agents that induce apoptosis with cell cycle arrest at G2/M phase” (Bioorg Med Chem Lett, 2012).
The source made the active and inactive calls. No cut-off for these calls is given here.

Columns and labels:
HEK293 [1] = experiment: Cell cycle arrest in human HEK293 cells assessed as accumulation at G2/M phase at LC50 after 48 hrs by propidium iodide staining based FACS analysis (reference value: 2.76 %); format: functional
HEK293 [2] = experiment: Cytotoxicity against human HEK293 cells after 24 hrs by MTT assay; format: functional; details: HEK293, 24 h, read-out: LC50 (the source's name)
HEK293 [3] = experiment: Induction of apoptosis in human HEK293 cells assessed as bubble shape nuclei at LC50 after 48 hrs using DAPI staining method; format: functional, cell-based
HEK293 [4] = experiment: Induction of apoptosis in human HEK293 cells assessed as increase in caspase-3 expression after 48 hrs by immunohistochemistry analysis; format: functional, cell-based
HEK293 [5] = experiment: Induction of apoptosis in human HEK293 cells assessed as increase in induction of PARP cleavage after 48 hrs by Western blot analysis; format: functional, cell-based
[6] = Cytotoxicity against african green monkey Vero cells after 72 hrs by MTT assay; format: cell-based; details: chlorocebus sabaeus, read-out: LC50
HEK293 [7] = experiment: Induction of apoptosis in human HEK293 cells assessed as reduction of Bcl-xL level after 48 hrs by Western blot analysis; format: functional, cell-based
[8] = Cytotoxicity against african green monkey Vero cells after 24 hrs by MTT assay; format: cell-based; details: chlorocebus sabaeus, read-out: LC50
HEK293 [9] = experiment: Induction of apoptosis in human HEK293 cells assessed as punchate nuclei at LC50 after 48 hrs using DAPI staining method; format: functional, cell-based
HEK293 [10] = experiment: Cell cycle arrest in human HEK293 cells assessed as accumulation at G0 phase at LC50 after 48 hrs by propidium iodide staining based FACS analysis (reference value: 3.5 %); format: functional
HEK293 [11] = experiment: Induction of apoptosis in human HEK293 cells assessed as increase in Bax expression after 48 hrs by Western blot analysis; format: functional, cell-based
HEK293 [12] = experiment: Cell cycle arrest in human HEK293 cells assessed as accumulation at S phase at LC50 after 48 hrs by propidium iodide staining based FACS analysis (reference value: 18.92 %); format: functional
[13] = Cytotoxicity against african green monkey Vero cells after 48 hrs by MTT assay; format: cell-based; details: chlorocebus sabaeus, read-out: LC50
HEK293 [14] = experiment: Cell cycle arrest in human HEK293 cells assessed as accumulation at G1 phase at LC50 after 48 hrs by propidium iodide staining based FACS analysis (reference value: 53.56 %); format: functional
HEK293 [15] = experiment: Induction of apoptosis in human HEK293 cells assessed as shrinkage of nuclei at LC50 after 48 hrs using DAPI staining method; format: functional, cell-based
HEK293 [16] = experiment: Cytotoxicity against human HEK293 cells after 48 hrs by MTT assay; format: functional; details: HEK293, 48 h, read-out: LC50 (the source's name)
HEK293 [17] = experiment: Induction of apoptosis in human HEK293 cells assessed as increase in caspase-3 cleavage after 48 hrs by Western blot analysis; format: functional, cell-based
HEK293 [18] = experiment: Cytotoxicity against human HEK293 cells after 72 hrs by MTT assay; format: functional; details: HEK293, 72 h, read-out: LC50 (the source's name)

Row | SMILES | Activity (HEK293 [1]) | CC50 (HEK293 [2]) | Activity (HEK293 [3]) | Activity (HEK293 [4]) | Activity (HEK293 [5]) | CC50 at 72 h [6] | Activity (HEK293 [7]) | CC50 at 24 h [8] | Activity (HEK293 [9]) | Activity (HEK293 [10]) | Activity (HEK293 [11]) | Activity (HEK293 [12]) | CC50 at 48 h [13] | Activity (HEK293 [14]) | Activity (HEK293 [15]) | CC50 (HEK293 [16]) | Activity (HEK293 [17]) | CC50 (HEK293 [18])
1 | O=C1c2cc(F)ccc2-c2[nH]c3ccccc3c21 | 38.9% | 18 µM | Active | Active | Active | 65 µM | Active | > 100 µM | Active | 0.46% | Active | 23.79% | > 100 µM | 37.31% | Active | 22 µM | Active | 15 µM
2 | O=C1c2ccccc2-c2[nH]c3ccccc3c21 | 76.44% | 50 µM | Active | Active | Active | 40 µM | Active | 56 µM | Active | 0.05% | Active | 17.35% | 48 µM | 6.29% | Active | 15 µM | Active | 14 µM
3 | O=c1[nH]cc(F)c(=O)[nH]1 [FLUOROURACIL] | – | – | – | – | – | – | – | – | – | – | – | – | – | – | – | 25 µM | – | –
4 | COc1cc([C@@H]2c3cc4c(cc3[C@@H](O[C@@H]3O[C@@H]5CO[C@@H](C)O[C@H]5[C@H](O)[C@H]3O)[C@H]3COC(=O)[C@H]23)OCO4)cc(OC)c1O [ETOPOSIDE] | – | – | – | – | – | – | – | – | – | – | – | – | 18 µM | – | – | 28 µM | – | –
5 | O=C1c2ccccc2-c2c1c1ccccc1n2Cc1ccccc1 | 38.7% | 50 µM | Active | Active | Active | 45 µM | Active | 57 µM | Active | 0.44% | Active | 20.19% | 53 µM | 41.21% | Active | 17 µM | Active | 16 µM
6 | COc1cc2c(cc1OC)-c1[nH]c3ccccc3c1C2=O | 73.31% | 16 µM | Active | Active | Active | 55 µM | Active | 47 µM | Active | 0.03% | Active | 23.95% | 54 µM | 3.43% | Active | 15 µM | Active | 12 µM
7 | COc1cc2c(c(OC)c1OC)-c1c(c3ccccc3n1C)C2=O | 57.56% | 39 µM | Active | Active | Active | 35 µM | Active | 42 µM | Active | 0.23% | Active | 19.52% | 39 µM | 22.98% | Active | 17 µM | Active | 16 µM
